Reference: patent publication US5925633A, “3-Substituted-4-oxa-1-azabicyclo [3,2,0]heptan-7-one as cysteine protease inhibitors” (Synphar Laboraties, Inc., priority 1996, dated 1999)

Columns and labels:
papain = biological target: T1, papain (Carica papaya, UniProt P00784); assay: In vitro assay procedure for papain (inhibition); format: biochemical; settings: pH 6.5, 10 min incubation at room temperature, substrate N-CBZ-Pro-Phe-Arg-pNA; read-out: IC50 Papain
T1 sequence (P00784 134-345): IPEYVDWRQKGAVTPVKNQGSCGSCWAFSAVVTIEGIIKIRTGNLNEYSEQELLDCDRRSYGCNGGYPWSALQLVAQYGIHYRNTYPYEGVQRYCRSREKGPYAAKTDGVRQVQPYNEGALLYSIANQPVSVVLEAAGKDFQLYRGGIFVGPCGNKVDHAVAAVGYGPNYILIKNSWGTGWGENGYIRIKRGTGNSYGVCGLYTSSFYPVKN
Protocol: To a 170 μl of enzyme-buffer mixture (enzyme: papain, diluted to give 30 mOD/min, buffer: 0.2 M potassium phosphate, 1.0 mM EDTA, 5 mM L-Cysteine, pH 6.5) a 10 μL of inhibitor (dissolved in DMSO) was added. After 10 min of incubation at room temperature, a 20 μl of 10 mM substrate (N-CBZ-Pro-Phe-Arg-pNA, dissolved in DMSO) was added to initiate reaction. Reading is followed up for 3 min at the Thermomax plate reader (absorbance at 405 nm)
A plot of percentage of inhibition vs inhibitor concentration is obtained, and IC50 is determined using a linear regression calculations (concentration of inhibitor which will give 50% inhibition).

cathepsin B = cathepsin B (Rattus norvegicus, UniProt P00787); assay: In vitro assay procedure for cathepsin B (inhibition); format: biochemical; settings: rat cathepsin B, pH 5.1, 10 min incubation at room temperature, substrate N-CBZ-Phe-Arg-AMC; read-out: IC50 Cathepsin B
cathepsin B, sequence (P00787 80-339): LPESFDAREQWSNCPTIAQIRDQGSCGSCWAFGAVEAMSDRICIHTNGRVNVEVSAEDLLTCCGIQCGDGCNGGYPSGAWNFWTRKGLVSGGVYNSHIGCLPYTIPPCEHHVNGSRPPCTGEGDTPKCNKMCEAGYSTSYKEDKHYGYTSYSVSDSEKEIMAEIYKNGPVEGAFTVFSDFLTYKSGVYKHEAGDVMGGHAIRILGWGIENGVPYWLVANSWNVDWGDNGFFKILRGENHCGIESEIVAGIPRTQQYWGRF
Protocol: The compounds of formula I were tested for inhibition of cathepsin B using the known method (A. J. Barret et al., Biochem. J. 1982, 201, 189-198). […] After 10 min of incubation at room temperature, a 20 μl of 5 mM substrate (N-CBZ-Phe-Arg-AMC, dissolved in DMSO) was added to initiate reaction. Reading is followed up for 10 min at the fluoroscan reader (excitation at 380 nm, emission at 460 nm).

Row | Structure (SMILES) | IC50 (papain) [nM] | IC50 (cathepsin B) [nM]
1 | NC(Cc1ccccc1)C(=O)NCC1CN2C(=O)CC2O1 (stereo not drawn) [Example 49] | 620 | 3080
2 | O=C(OCC1CN2C(=O)CC2O1)c1ccc(O)c(O)c1 (stereo not drawn) [Example 50] | 2500 | 460
3 | COc1ccc(C(=O)OCC2CN3C(=O)CC3O2)cc1OC (stereo not drawn) [Example 51] | 130 | 3300
4 | COc1cc(C(=O)OCC2CN3C(=O)CC3O2)cc(OC)c1O (stereo not drawn) [Example 52] | 620 | 3100
5 | Nc1ccc(C(=O)OCC2CN3C(=O)CC3O2)cc1 (stereo not drawn) [Example 53] | 2400 | 3800
6 | O=C(OCC1CN2C(=O)CC2O1)c1cc(F)c(F)cc1F (stereo not drawn) [Example 54] | 660 | 8300
7 | N#Cc1ccc(C(=O)OCC2CN3C(=O)CC3O2)cc1 (stereo not drawn) [Example 55] | 740 | 3700
8 | Cc1ccc(S(=O)(=O)NCC2CN3C(=O)CC3O2)cc1 (stereo not drawn) [Example 56] | 1760 | 670
9 | O=C1CC2OC(CNS(=O)(=O)c3ccc(Cl)cc3)CN12 (stereo not drawn) [Example 57] | 630 | 630
10 | O=C(NCC1CN2C(=O)CC2O1)c1ccccc1 (stereo not drawn) [Example 58] | 810 | 4100
11 | COc1ccc(S(=O)(=O)NCC2CN3C(=O)CC3O2)cc1 (stereo not drawn) [Example 59] | 3200 | 640
12 | O=C(OCC1CN2C(=O)CC2O1)c1ccccc1 (stereo not drawn) [Example 60] | 4000 | 4000
13 | O=C1CC2OC(CS(=O)(=O)c3ccccc3)CN12 (stereo not drawn) [Example 61] | 1600 | 1600
14 | O=C1CC2OC(C[S+]([O-])Cc3ccccc3)CN12 (stereo not drawn) [Example 62] | 760 | 8700
15 | O=C(O)COc1ccc(C(=O)OCC2CN3C(=O)CC3O2)cc1 (stereo not drawn) [Example 63] | 2900 | 2000
16 | O=C(O)c1ccccc1C(=O)OCC1CN2C(=O)CC2O1 (stereo not drawn) [Example 64] | 16000 | 6900
17 | COc1ccc(C(=O)OCC2CN3C(=O)CC3O2)cc1 (stereo not drawn) [Example 65] | 2000 | 8900
18 | O=C(OCC1CN2C(=O)CC2O1)c1ccc(F)cc1 (stereo not drawn) [Example 66] | 2400 | 3800
19 | O=C(OCC1CN2C(=O)CC2O1)c1ccc(O)cc1 (stereo not drawn) [Example 67] | 2400 | 3800
20 | COc1ccc(C(=O)NCC2CN3C(=O)CC3O2)cc1 (stereo not drawn) [Example 68] | 720 | 3600
21 | O=C(NC(CO)C(=O)OCC1CN2C(=O)CC2O1)OCc1ccccc1 (stereo not drawn) [Example 69] | 1500 | 2700
22 | O=C(CNC(=O)OCc1ccccc1)NCC(=O)OCC1CN2C(=O)CC2O1 (stereo not drawn) [Example 70] | 350 | 6700
23 | O=C(NC(c1ccccc1)C(O)C(=O)OCC1CN2C(=O)CC2O1)c1ccccc1 (stereo not drawn) [Example 71] | 240 | 240
24 | O=C1CC(OCC2CN3C(=O)CC3O2)N1 (stereo not drawn) [Example 73] | 2400 | 4700
25 | O=C(CCCCCCn1ccnn1)NCC1CN2C(=O)CC2O1 (stereo not drawn) [Example 74] | 3300 | 6500
26 | O=C(NCC1CN2C(=O)CC2O1)C1CCCCC1 (stereo not drawn) [Example 75] | 3970 | 360
27 | O=C(O)C1CCCCC1C(=O)OCC1CN2C(=O)CC2O1 (stereo not drawn) [Example 76] | 10900 | 340
